The text below walks through data of article PMC9994683 (PLOS ONE, 2023).

Each structure is given as a SMILES string.

One series concerns Vero E6 cells. The experiment in a line: MTT cytotoxicity assay (CC50) in Vero E6 cells. The series is classed as cell-based, African green monkey. Conditions: reference drug control. On the technique in general: Tetrazolium assays rely on reduction of a dye to a coloured formazan, in cell work by metabolically active cells.
Series [1] has as its system hCoV-19/Egypt/NRC-3/2020 SARS-CoV-2 virus. The experiment in a line: Anti-SARS-CoV-2 activity (IC50), crystal violet assay in Vero-E6 cells. Format: cell-based. Particulars: SARS-CoV-2 in Vero E6 cells, reference drug control.
Series [2] deals with Pseudomonas aeruginosa (ATCC 10145). Kind of series: Well-diffusion assay. Conditions: extracts 50 μg/mL, 50 μL per well, within 24 h. Format: cell-based. For orientation: In agar diffusion tests the substance spreads into inoculated agar from a disc or well.
In series [3] the test system is Enterococcus faecalis (ATCC 43845). The experiment in a line: Disc-diffusion assay. The series is classed as cell-based.
Series [4] concerns Salmonella enterica (ATCC 14028). Kind of series: Well-diffusion assay. Format: cell-based. Particulars: extracts 50 μg/mL, 50 μL per well, within 24 h. Here is the method:
(§1) The bactericidalpotential of 50μg/mL of A. indica L. and M. azedarach L. leaves extracts were evaluated using the disc and well-diffusion assays by the formation of inhibition zone. Then, the broth-microdilution approach was used to estimate the values of minimum inhibitory concentration (MIC).
(§2) The antibacterial actions of extracts were examined against Escherichia coli (ATCC 25922), Salmonella enterica (ATCC 14028), Pseudomonas aeruginosa (ATCC 10145), representing Gram-negative (GN) bacteria; Listeria monocytogenes (ATCC 35152), Staphylococcus aureus (ATCC 43300) and Enterococcus faecalis (ATCC 43845), representing Gram-positive (GP) bacteria. Each bacterial culture stock preserved in -80°C was injected into a tube containing 20 ml of Trypticase soya broth (TSB). Then, all inoculated tubes were incubated for 24 h at 37°C. Dilution of the cultures with Mueller–Hinton Broth (MHB) was performed corresponding to ten folds serial dilution upto 10^-8CFU/ml of the bacterial culture.
2.6.2.2. Well-diffusion method. Using sanitized needle tips, a 6 mm-diameter hole was drilled. Afterward when, a sterilized cotton swab was employed to smear the inoculum standard solution of the examined microbes onto the medium. The specimen was then transferred to each well in intervals of 50 μL. Two reference antibiotic drugs (vancomycin and ciprofloxacin) served as positive controls. […]

In series [5] the test system is Pseudomonas aeruginosa (ATCC 10145). Kind of series: Disc-diffusion assay. Format: cell-based.
In series [6] the test system is Enterococcus faecalis (ATCC 43845). The experiment in a line: Well-diffusion assay. The series is classed as cell-based. Conditions: extracts 50 μg/mL, 50 μL per well, within 24 h.
Series [7] relates to Listeria monocytogenes (ATCC 35152). Kind of series: Disc-diffusion assay. Conditions: ATCC35152, extracts 50 μg/mL, vancomycin 30 μg/disc, ciprofloxacin 5 μg/disc, read-out: zone of inhibition (diameter), Disc, L. mono. The series is classed as cell-based. As to the method: as §1, §2
(§3) 2.6.2.1. Disc-diffusion method. The technique was conducted based upon the Clinical and Laboratory Standards Institute (CLSI) (M02-A11). The prepared bacterial inoculum suspension was briefly swabbed onto MHA medium with a sterile cotton swab. Next, sterile discs made of filter paper (6 mm) (Maidstone, UK) were saturated with 50μg/mLof the tested samples. Both Ciprofloxacin (5μg/disc) and Vancomycin (30μg/disc) were used as controls. The saturated discs were lightly pushed on the top surfaces MHA and incubated with bacteria overnight at 37°C. A produced zone of inhibition (ZOI) was measured and given in millimeters (mm).

Series [8] relates to Salmonella enterica (ATCC 14028). The experiment in a line: Disc-diffusion assay. Conditions: ATCC14028, extracts 50 μg/mL, vancomycin 30 μg/disc, ciprofloxacin 5 μg/disc, read-out: zone of inhibition (diameter), Disc, S. enterica. Format: cell-based. As to the method:
as §1, §2, §3

Series [9] relates to Staphylococcus aureus (ATCC 43300). The experiment in a line: Disc-diffusion assay. Format: cell-based.
Series [10] has as its system Escherichia coli (ATCC 25922). Kind of series: Well-diffusion assay. The series is classed as cell-based. Particulars: extracts 50 μg/mL, 50 μL per well, within 24 h.
Series [11] deals with Listeria monocytogenes (ATCC 35152). Kind of series: Well-diffusion assay. The series is classed as cell-based. Particulars: extracts 50 μg/mL, 50 μL per well, within 24 h.
Series [12] relates to Staphylococcus aureus (ATCC 43300). Kind of series: Well-diffusion assay. Particulars: extracts 50 μg/mL, 50 μL per well, within 24 h. Format: cell-based.
For series [13], the system named is Escherichia coli (ATCC 25922). Kind of series: Disc-diffusion assay. Format: cell-based.

As usually defined, the CC50 is the concentration giving 50% cytotoxicity. A higher CC50 goes with better tolerance by the cells. As a reminder, the IC50 is the midpoint of a concentration-inhibition curve. In the case of `CCC(CC)COC(=O)[C@H](C)N[P@](=O)(OC[C@H]1O[C@@](C#N)(c2ccc3c(N)ncnn23)[C@H](O)[C@@H]1O)Oc1ccccc1` [remedesivir], in the series on Vero E6 cells, the midpoint of cytotoxicity, the CC50, lay at 473 µM. The same compound showed an IC50 in series [1] of 6.72 µM.
For orientation: zone of inhibition means the size of the clear area around the sample on an inoculated plate. On to `CN[C@H](CC(C)C)C(=O)N[C@H]1C(=O)N[C@@H](CC(N)=O)C(=O)N[C@H]2C(=O)N[C@H]3C(=O)N[C@H](C(=O)N[C@H](C(=O)O)c4cc(O)cc(O)c4-c4cc3ccc4O)[C@H](O)c3ccc(c(Cl)c3)Oc3cc2cc(c3O[C@@H]2O[C@H](CO)[C@@H](O)[C@H](O)[C@H]2O[C@H]2C[C@](C)(N)[C@H](O)[C@H](C)O2)Oc2ccc(cc2Cl)[C@H]1O` [Vanco., vancomycin], for which the “zone of inhibition (diameter), Well, P. aeruginosa” value in series [2] is given as 8 ±0.24 mm. Besides, the zone of inhibition at 30 µg/disc worked out at 11 ± 0.31 mm in [3] (ATCC43845, read-out: zone of inhibition (diameter), Disc, E. faecalis); 6 ± 0.21 mm in series [5] (ATCC10145, read-out: zone of inhibition (diameter), Disc, P. aeruginosa); 9 ± 0.43 mm in series [7]; 7 ± 0.21 mm in [8]; 12 ± 0.22 mm in series [9] (ATCC43300, read-out: zone of inhibition (diameter), Disc, S. aureus); 9 ± 0.11 mm in series [13] (ATCC25922, read-out: zone of inhibition (diameter), Disc, E. coli). In series [4], the “zone of inhibition (diameter), Well, S. enterica” value is reported as 9 ±0.24 mm. In addition, the “zone of inhibition (diameter), Well, E. faecalis” value in series [6] is 13 ±0.23 mm. Further, the “zone of inhibition (diameter), Well, E. coli” value in [10] was 10 ±0.23 mm. Besides, the “zone of inhibition (diameter), Well, L. mono.” value in series [11] is recorded as 11 ±0.11 mm. Besides, in [12], the “zone of inhibition (diameter), Well, S. aureus” value came to 14 ±0.27 mm.
As for `O=C(O)c1cn(C2CC2)c2cc(N3CCNCC3)c(F)cc2c1=O` [Cipro., ciprofloxacin], the “zone of inhibition (diameter), Well, P. aeruginosa” value in series [2] came out at 11 ±0.31 mm. In addition, the zone of inhibition at 5 µg/disc in series [3] (ATCC43845, extracts 50 μg/mL, vancomycin 30 μg/disc, ciprofloxacin 5 μg/disc, read-out: zone of inhibition (diameter), Disc, E. faecalis) came to 9 ± 0.19 mm; in series [5] (ATCC10145, extracts 50 μg/mL, vancomycin 30 μg/disc, ciprofloxacin 5 μg/disc, read-out: zone of inhibition (diameter), Disc, P. aeruginosa), 9 ± 0.15 mm; in series [7], 6 ± 0.25 mm; in series [8], 11 ± 0.15 mm; in series [9] (ATCC43300, extracts 50 μg/mL, vancomycin 30 μg/disc, ciprofloxacin 5 μg/disc, read-out: zone of inhibition (diameter), Disc, S. aureus) it was 8 ± 0.24 mm; in [13] (ATCC25922, extracts 50 μg/mL, vancomycin 30 μg/disc, ciprofloxacin 5 μg/disc, read-out: zone of inhibition (diameter), Disc, E. coli), 14 ± 0.28 mm. Besides, in series [4], the “zone of inhibition (diameter), Well, S. enterica” value was found to be 12 ±0.31 mm. For the same compound, the “zone of inhibition (diameter), Well, E. faecalis” value in series [6] was determined as 10 ±0.15 mm. The “zone of inhibition (diameter), Well, E. coli” value in series [10] worked out at 16 ±0.19 mm. The “zone of inhibition (diameter), Well, L. mono.” value in series [11] came to 8 ±0.18 mm. Moreover, the “zone of inhibition (diameter), Well, S. aureus” value in series [12] was determined as 10 ±0.29 mm.
